Test results from patent US20220323406A1, “METHODS AND COMPOSITIONS FOR DIFFERENTIATING STEM CELLS” (Massachusetts Institute of Technology, priority 2019, published 2022).

How the values were obtained:
[1] = tested on: ENR+CD organoids (ISC to Paneth cell differentiation); experiment: Primary screen: basal (non-stimulated) lysozyme secretion LYZ.NS, 2.5-D 384-well ENR+CD organoid differentiation; type: cell-based, mouse
From the text: (§1) High-throughput screening.

[2] = tested on: ENR+CD organoids (ISC to Paneth cell differentiation); experiment: Primary screen: CCh-stimulated lysozyme secretion LYZ.S, 2.5-D 384-well ENR+CD organoid differentiation; type: cell-based, mouse; settings: primary screen
From the text: as §1

[3] = tested on: ENR+CD organoids (ISC to Paneth cell differentiation); experiment: Secondary (validation) screen: LYZ.NS basal lysozyme secretion, 2.5-D 384-well ENR+CD organoids; type: cell-based, mouse; settings: for Dose.FC.LYZ.NS: 6-day ENR+CD, vs ENR+CD+DMSO
Experimental: (§2) Drugs were tested at a narrowed dose range around each treatment's identified optimal dose from the primary screen (4× below, 2× above and below).
as §1
(§3) Secondary lysozyme secretion assay screen. Confirmatory secondary screening with primary hits was performed using the above 384-well plate method. The screen was conducted with 4-plate replicates with a base media of ENR+CD. Media was supplemented with compound at day 0 and day 3 (n=8 well replicates per dose) at four different doses: two-fold above, two-fold below, and four-fold below the optimal final dose for each respective treatment. Additionally, each plate carried a large number of ENR+DMSO or ENR+CD+DMSO (vehicle) control wells (n=100 for ATP, and n=25 for LYZ.NS and LYZ.S) for robust normalization. ATP, non-stimulated lysozyme activity and CCh-stimulated lysozyme activity was again measured and the collected data was again processed in a custom R-script, per primary screen with slight modification. Values were log10 transformed, and a plate-wise FC was calculated for each well based on the median value of ENR+CD+DMSO (vehicle) control wells to normalize plate to plate variability.

[4] = tested on: ENR+CD organoids (ISC to Paneth cell differentiation); experiment: Secondary (validation) screen: LYZ.S CCh-stimulated lysozyme secretion, 2.5-D 384-well ENR+CD organoids; type: cell-based, mouse; settings: 6-day ENR+CD, vs ENR+CD+DMSO
Experimental: as §2, §1, §3

ENR+CD organoids [5] = experiment: Secondary (validation) screen: ATP (CTG) assay, 2.5-D 384-well ENR+CD organoids; type: cell-based, mouse; settings: 6-day ENR+CD, vs ENR+CD+DMSO
Experimental: as §2, §1, §3

ENR+CD organoids [6] = experiment: Primary screen: ATP (CellTiter-Glo 3D, CTG) cell number/viability, 2.5-D 384-well ENR+CD organoids; settings: primary screen;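 note: compounds given at plating and again on day 3 over a 6-day differentiation from ENR+CV stem-cell-enriched precursors, ATP measured on day 6, plate median as control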
[7] = primary screen, standard z score, dose 0.08 uM
[8] = primary screen, standard z score, dose 0.40 uM
[9] = primary screen, standard z score, dose 2.00 uM
[10] = primary screen, standard z score, dose 10.00 uM
[11] = dose 0.08 uM, FC vs plate median
[12] = dose 0.40 uM, FC vs plate median
[13] = dose 2.00 uM, FC vs plate median
[14] = dose 10.00 uM, FC vs plate median

## CCOc1ccc(Cc2cc([C@@H]3O[C@H](CO)[C@@H](O)[C@H](O)[C@H]3O)ccc2Cl)cc1 [Dapagliflozin, reference compound]
[1]; primary screen, dose 0.08 uM
  Dose.FC.LYZ.NS: 0.170 log2 fold change
[1]; primary screen, dose 0.40 uM
  Dose.FC.LYZ.NS: 0.097 log2 fold change
[1]; primary screen, dose 2.00 uM
  Dose.FC.LYZ.NS: 0.159 log2 fold change
[1]; primary screen, dose 10.00 uM
  Dose.FC.LYZ.NS: 0.136 log2 fold change
[1]; [7]
  Z.LYZ.NS: 1.481
[1]; [8]
  Z.LYZ.NS: 0.842
[1]; [9]
  Z.LYZ.NS: 1.386
[1]; [10]
  Z.LYZ.NS: 1.182
[2]; dose 0.08 uM
  Dose.FC.LYZ.S: 0.294 log2 fold change
[2]; dose 0.40 uM
  Dose.FC.LYZ.S: 0.135 log2 fold change
[2]; dose 2.00 uM
  Dose.FC.LYZ.S: 0.166 log2 fold change
[2]; dose 10.00 uM
  Dose.FC.LYZ.S: 0.145 log2 fold change
[3]; 0.02 uM
  Dose.FC.LYZ.NS: 0.022 log2 fold change
[3]; 0.04 uM
  Dose.FC.LYZ.NS: 0.150 log2 fold change
[3]; 0.08 uM
  Dose.FC.LYZ.NS: 0.058 log2 fold change
[3]; […]
  Dose.FC.LYZ.NS: −0.060 log2 fold change
[4]; 0.02 uM
  Dose.FC.LYZ.S: −0.019 log2 fold change
[4]; 0.04 uM
  Dose.FC.LYZ.S: 0.069 log2 fold change
[4]; 0.08 uM
  Dose.FC.LYZ.S: 0.069 log2 fold change
[4]; […]
  Dose.FC.LYZ.S: −0.082 log2 fold change
ENR+CD organoids [5]; 0.02 uM
  Dose.FC.CTG: 0.085 log2 fold change
ENR+CD organoids [5]; 0.04 uM
  Dose.FC.CTG: 0.174 log2 fold change
ENR+CD organoids [5]; 0.08 uM
  Dose.FC.CTG: 0.149 log2 fold change
ENR+CD organoids [5]; […]
  Dose.FC.CTG: 0.035 log2 fold change
ENR+CD organoids [6]; dose 0.08 uM
  Dose.FC.CTG: 0.410 log2 fold change
ENR+CD organoids [6]; dose 0.40 uM
  Dose.FC.CTG: 0.254 log2 fold change
ENR+CD organoids [6]; dose 2.00 uM
  Dose.FC.CTG: 0.293 log2 fold change
ENR+CD organoids [6]; dose 10.00 uM
  Dose.FC.CTG: 0.301 log2 fold change

## CC(C)(C)NC(=O)[C@H]1CC[C@H]2[C@@H]3CC[C@H]4NC(=O)C=C[C@]4(C)[C@H]3CC[C@]12C [Finasteride, reference compound]
[1]; LYZ.NS and LYZ.S; 0.08-10 uM, 6 days ENR+CD
  primary screen hit call (SSMD and z-scored FC cutoffs in both LYZ assays): sole hit in their respective pathway
[1]; primary screen, dose 0.08 uM
  Dose.FC.LYZ.NS: 0.205 log2 fold change
[1]; primary screen, dose 0.40 uM
  Dose.FC.LYZ.NS: 0.213 log2 fold change
[1]; primary screen, dose 2.00 uM
  Dose.FC.LYZ.NS: 0.142 log2 fold change
[1]; primary screen, dose 10.00 uM
  Dose.FC.LYZ.NS: 0.067 log2 fold change
[1]; [7]
  Z.LYZ.NS: 1.781
[1]; [8]
  Z.LYZ.NS: 1.852
[1]; [9]
  Z.LYZ.NS: 1.236
[1]; [10]
  Z.LYZ.NS: 0.587
[2]; dose 0.08 uM
  Dose.FC.LYZ.S: 0.199 log2 fold change
[2]; dose 0.40 uM
  Dose.FC.LYZ.S: 0.211 log2 fold change
[2]; dose 2.00 uM
  Dose.FC.LYZ.S: 0.156 log2 fold change
[2]; dose 10.00 uM
  Dose.FC.LYZ.S: 0.056 log2 fold change
[3]; 0.02 uM
  Dose.FC.LYZ.NS: 0.056 log2 fold change
[3]; 0.04 uM
  Dose.FC.LYZ.NS: −0.189 log2 fold change
[3]; 0.08 uM
  Dose.FC.LYZ.NS: −0.191 log2 fold change
[3]; […]
  Dose.FC.LYZ.NS: −0.203 log2 fold change
[4]; 0.02 uM
  Dose.FC.LYZ.S: −0.019 log2 fold change
[4]; 0.04 uM
  Dose.FC.LYZ.S: −0.260 log2 fold change
[4]; 0.08 uM
  Dose.FC.LYZ.S: −0.242 log2 fold change
[4]; […]
  Dose.FC.LYZ.S: −0.253 log2 fold change
ENR+CD organoids [5]; 0.02 uM
  Dose.FC.CTG: 0.066 log2 fold change
ENR+CD organoids [5]; 0.04 uM
  Dose.FC.CTG: −0.180 log2 fold change
ENR+CD organoids [5]; 0.08 uM
  Dose.FC.CTG: −0.011 log2 fold change
ENR+CD organoids [5]; […]
  Dose.FC.CTG: −0.065 log2 fold change
ENR+CD organoids [6]; dose 0.08 uM
  Dose.FC.CTG: 0.151 log2 fold change
ENR+CD organoids [6]; dose 0.40 uM
  Dose.FC.CTG: −0.038 log2 fold change
ENR+CD organoids [6]; dose 2.00 uM
  Dose.FC.CTG: 0.073 log2 fold change
ENR+CD organoids [6]; dose 10.00 uM
  Dose.FC.CTG: −0.041 log2 fold change

## Cc1cn(-c2cc(NC(=O)c3ccc(C)c(Nc4nccc(-c5cccnc5)n4)c3)cc(C(F)(F)F)c2)cn1 [Nilotinib (AMN-107), Nilotinib, reference compound]
[1]; primary screen, dose 0.08 uM, standard z score
  Z.LYZ.NS: 1.703
[1]; primary screen, dose 0.40 uM, standard z score
  Z.LYZ.NS: 1.412
[1]; primary screen, dose 2.00 uM, standard z score
  Z.LYZ.NS: 0.742
[1]; primary screen, dose 10.00 uM, standard z score
  Z.LYZ.NS: −0.806
[1]; primary screen; dose 0.08 uM; FC vs plate median
  Dose.FC.LYZ.NS: 0.196 log2 fold change
[1]; primary screen; dose 0.40 uM; FC vs plate median
  Dose.FC.LYZ.NS: 0.162 log2 fold change
[1]; primary screen; dose 2.00 uM; FC vs plate median
  Dose.FC.LYZ.NS: 0.085 log2 fold change
[1]; primary screen; dose 10.00 uM; FC vs plate median
  Dose.FC.LYZ.NS: −0.093 log2 fold change
[2]; [11]
  Dose.FC.LYZ.S: 0.235 log2 fold change
[2]; [12]
  Dose.FC.LYZ.S: 0.293 log2 fold change
[2]; [13]
  Dose.FC.LYZ.S: 0.033 log2 fold change
[2]; [14]
  Dose.FC.LYZ.S: −0.197 log2 fold change
[3]; 0.10 uM
  Dose.FC.LYZ.NS: 0.092 log2 fold change
[3]; 0.20 uM
  Dose.FC.LYZ.NS: 0.161 log2 fold change
[3]; 0.40 uM
  Dose.FC.LYZ.NS: 0.101 log2 fold change
[3]; 0.80 uM
  Dose.FC.LYZ.NS: 0.165 log2 fold change
[3]; LYZ.NS and LYZ.S
  validated doses in secondary screen (SSMD above cutoff in both LYZ assays): multiple validated doses
[3]; LYZ.NS and LYZ.S mean fold change
  biological potency compared with Bosutinib: more biologically potent
[4]; 0.10 uM
  Dose.FC.LYZ.S: 0.044 log2 fold change
[4]; 0.20 uM
  Dose.FC.LYZ.S: 0.117 log2 fold change
[4]; 0.40 uM
  Dose.FC.LYZ.S: −0.007 log2 fold change
[4]; 0.80 uM
  Dose.FC.LYZ.S: 0.143 log2 fold change
ENR+CD organoids [5]; 0.10 uM
  Dose.FC.CTG: 0.092 log2 fold change
ENR+CD organoids [5]; 0.20 uM
  Dose.FC.CTG: 0.122 log2 fold change
ENR+CD organoids [5]; 0.40 uM
  Dose.FC.CTG: 0.141 log2 fold change
ENR+CD organoids [5]; 0.80 uM
  Dose.FC.CTG: 0.233 log2 fold change
ENR+CD organoids [6]; [11]
  Dose.FC.CTG: 0.322 log2 fold change
ENR+CD organoids [6]; [12]
  Dose.FC.CTG: 0.348 log2 fold change
ENR+CD organoids [6]; [13]
  Dose.FC.CTG: 0.242 log2 fold change
ENR+CD organoids [6]; [14]
  Dose.FC.CTG: −0.012 log2 fold change
